Measurements published in patent US20210300940A1 (Merck Patent GmbH, priority 2018, published 2021).

Experiments:
TLR7 = biological target: T1, TLR7 (Homo sapiens, UniProt Q9NYK1); experiment: HEK/293 TLR7 Cell Assay; assay type: cell-based; conditions: TLR7/NFKb HEK cells, R848 agonist 10 uM final concentration, Steady-Glo readout; read-out: TLR7 potency
T1 construct: expressed in transfected cells; host or cells: HEK/293 cells carrying TLR7 and an NF-kB luciferase reporter
T1 sequence (Q9NYK1 27-1049): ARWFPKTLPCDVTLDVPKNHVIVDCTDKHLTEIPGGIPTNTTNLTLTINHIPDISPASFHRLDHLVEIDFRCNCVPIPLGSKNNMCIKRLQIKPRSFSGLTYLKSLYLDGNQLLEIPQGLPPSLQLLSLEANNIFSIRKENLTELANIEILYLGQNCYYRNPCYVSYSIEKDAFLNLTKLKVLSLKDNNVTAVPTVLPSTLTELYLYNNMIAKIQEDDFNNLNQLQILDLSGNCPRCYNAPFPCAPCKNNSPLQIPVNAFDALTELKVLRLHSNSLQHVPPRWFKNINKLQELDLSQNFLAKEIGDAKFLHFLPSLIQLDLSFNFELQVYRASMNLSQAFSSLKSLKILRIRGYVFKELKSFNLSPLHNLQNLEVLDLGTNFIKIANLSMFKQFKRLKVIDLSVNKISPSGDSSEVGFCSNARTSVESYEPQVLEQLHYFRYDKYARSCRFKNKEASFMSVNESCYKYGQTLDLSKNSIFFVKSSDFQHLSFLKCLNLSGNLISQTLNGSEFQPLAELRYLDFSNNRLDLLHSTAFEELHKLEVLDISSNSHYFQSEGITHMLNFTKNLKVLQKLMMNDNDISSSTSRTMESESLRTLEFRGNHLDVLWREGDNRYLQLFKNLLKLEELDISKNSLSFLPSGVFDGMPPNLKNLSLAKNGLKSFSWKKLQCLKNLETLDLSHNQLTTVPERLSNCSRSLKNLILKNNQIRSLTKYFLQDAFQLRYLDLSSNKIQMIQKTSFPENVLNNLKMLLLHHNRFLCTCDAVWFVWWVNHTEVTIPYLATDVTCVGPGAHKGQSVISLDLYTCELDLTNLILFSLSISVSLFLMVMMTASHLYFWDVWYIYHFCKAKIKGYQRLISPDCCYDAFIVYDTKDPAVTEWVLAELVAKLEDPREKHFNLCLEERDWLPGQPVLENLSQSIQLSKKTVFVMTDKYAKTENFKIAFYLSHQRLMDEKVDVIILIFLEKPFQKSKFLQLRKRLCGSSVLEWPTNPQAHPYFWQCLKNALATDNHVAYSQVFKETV
In short: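 Compounds added to HEK cells expressing TLR7 with an NFκB reporter 30 min ahead of 10 uM R848 challenge; luciferase signal (Steady-Glo) measured after 5 h, cells having been seeded 24 h earlier at 5000 per well.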

TLR8 = biological target: T2, TLR8 (Homo sapiens, UniProt Q9NR97); experiment: HEK/293 TLR8 Cell Assay; assay type: cell-based; conditions: HEK cells, R848 agonist 30 uM final concentration, Steady-Glo readout; read-out: TLR8 potency
T2 construct: expressed in transfected cells; host or cells: HEK/293 reporter cells (NF-kB luciferase)
T2 sequence (Q9NR97 27-1041): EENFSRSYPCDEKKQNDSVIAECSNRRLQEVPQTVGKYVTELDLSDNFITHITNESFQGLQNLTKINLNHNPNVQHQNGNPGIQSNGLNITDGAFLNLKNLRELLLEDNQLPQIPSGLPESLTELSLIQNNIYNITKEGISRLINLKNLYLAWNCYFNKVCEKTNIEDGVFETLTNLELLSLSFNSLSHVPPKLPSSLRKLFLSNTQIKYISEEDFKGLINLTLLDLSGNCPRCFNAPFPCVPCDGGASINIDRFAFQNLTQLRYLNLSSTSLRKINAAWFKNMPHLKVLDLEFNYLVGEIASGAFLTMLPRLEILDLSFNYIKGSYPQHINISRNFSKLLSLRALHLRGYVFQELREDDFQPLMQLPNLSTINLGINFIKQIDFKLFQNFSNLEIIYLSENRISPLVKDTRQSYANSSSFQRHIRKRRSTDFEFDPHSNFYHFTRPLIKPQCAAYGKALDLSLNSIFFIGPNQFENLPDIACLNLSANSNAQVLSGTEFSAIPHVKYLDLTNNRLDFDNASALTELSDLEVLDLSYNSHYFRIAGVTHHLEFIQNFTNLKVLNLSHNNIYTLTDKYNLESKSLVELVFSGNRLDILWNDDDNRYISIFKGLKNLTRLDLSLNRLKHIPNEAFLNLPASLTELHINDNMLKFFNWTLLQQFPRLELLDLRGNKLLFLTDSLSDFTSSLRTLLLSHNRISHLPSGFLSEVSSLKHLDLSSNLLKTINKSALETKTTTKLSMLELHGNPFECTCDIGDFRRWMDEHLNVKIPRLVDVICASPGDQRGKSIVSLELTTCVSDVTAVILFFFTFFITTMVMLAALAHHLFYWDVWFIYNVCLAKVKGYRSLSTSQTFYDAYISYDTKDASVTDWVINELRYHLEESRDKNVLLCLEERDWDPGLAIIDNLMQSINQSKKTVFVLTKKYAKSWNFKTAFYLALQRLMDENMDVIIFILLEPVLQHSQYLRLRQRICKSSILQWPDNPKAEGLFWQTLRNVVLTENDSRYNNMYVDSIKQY

| SMILES | IC50 (TLR7) [nM] | IC50 (TLR8) [nM] |
| --- | --- | --- |
| Cc1ncc(N2C[C@H](NC(=O)CN3CCN(C)CC3)C[C@H](C(F)(F)F)C2)c2cccnc12 [Example 70, N-[(3R,5S)-1-(8-methyl-1,7-naphthyridin-5-yl)-5-(trifluoromethyl)piperidin-3-yl]-2-(4-methylpiperazin-1-yl)acetamide] | 75 to 150 | 75 to 150 |
| C[C@H]1C[C@@H](NC(=O)C[C@@H]2CCNC[C@@H]2F)CN(c2ccc(C#N)c3ncncc23)C1 [Example 131, N-[(3R,5S)-1-(8-cyanoquinazolin-5-yl)-5-methylpiperidin-3-yl]-2-[(3R,4S)-3-fluoropiperidin-4-yl]acetamide] | < 75 | > 150 |
| C[C@@H]1CN(c2ccc(C#N)c3nccnc23)C[C@H](C(=O)NCC2CCS(=O)(=O)C2)O1 (stereo partly drawn) [Example 257, (2R,6R)-4-(8-cyanoquinoxalin-5-yl)-N-[(1,1-dioxo-1λ^6-thiolan-3-yl)methyl]-6-methylmorpholine-2-carboxamide] | < 75 | < 75 |
| C[C@@H]1CN(c2ccc(C(F)(F)F)c3ncccc23)C[C@H](CN2CCN(C)CC2)O1 [Example 330, 5-[(2R,6S)-2-Methyl-6-(4-methyl-piperazin-1-ylmethyl)-morpholin-4-yl]-8-trifluoromethyl-quinoline] | < 75 | < 75 |
| CN(C)CCNC(=O)N[C@@H]1C[C@H](C(F)(F)F)CN(c2ccc(C#N)c3nccnc23)C1 [Example 139, 1-[(3R,5S)-1-(8-cyanoquinoxalin-5-yl)-5-(trifluoromethyl)piperidin-3-yl]-3-[2-(dimethylamino)ethyl]urea] | 75 to 150 | 75 to 150 |
| C[C@@H]1CN(c2cnc(C#N)c3ncccc23)C[C@H](C(=O)NC2CCNCC2(F)F)O1 (stereo partly drawn) [Example 302, (2R,6R)-4-(8-Cyano-[1,7]naphthyridin-5-yl)-6-methyl-morpholine-2-carboxylic acid (3,3-difluoro-piperidin-4-yl)-amide] | > 150 | > 150 |
| C[C@H]1C[C@@H](N)CN(c2cc(F)c(C#N)c3ncccc23)C1 [Example 57, 5-((3R,5S)-3-Amino-5-methyl-piperidin-1-yl)-7-fluoro-quinoline-8-carbonitrile] | < 75 | < 75 |
| CC(C(=O)N[C@@H]1C[C@H](C(F)(F)F)CN(c2ccc(C(F)(F)F)c3ncccc23)C1)N1CCN(C)CC1 (single isomer, unassigned) [Example 94] | 75 to 150 | < 75 |
| CC(C(=O)N[C@@H]1C[C@H](C)CN(c2ccc(C#N)c3nccnc23)C1)N1CCC(O)CC1 (single isomer, unassigned) [Example 102] | < 75 | < 75 |
